In publication PMC9828254, “Identification of Dihydroorotate Dehydrogenase Inhibitors Using the Cell Painting Assay” (Chembiochem, 2022):
Entries after “also recorded” stand apart in the source; their conditions may differ.

Columns and labels:
Human DHODH = target: T1, Human DHODH (Homo sapiens, UniProt Q02127); assay: DHODH enzymatic assay (DCPIP reduction); type: biochemical; settings: for inhibition at 10 µM: 30 min preincubation, read-out: reduction (inhibition) of in vitro DHODH activity
T1 construct: 40 μL of purified DHODH (aa31–395, final concentration: 1.25 μg/mL); made in house; host or cells: E. coli BL21 (DE3)
Protocol: Expression was induced by adding 0.8 mM IPTG (AppliChem, A1008,0025) and temperature was reduced to 28 °C for 6 hours. […] The clarified supernatant was loaded to the column and washed with PBS (1 mL/min) for 2 h, followed by elution with 10 mM L‐glutathione (Sigma Aldrich, G4251) in PBS. The GST tag was not removed for further analysis. Factions containing hDHODH‐GST protein were pooled, concentrated with centrifugal filters (Ultra‐50 K, Merck Millipore, UFC905096) and shock‐frozen for further analysis. Protein concentration was determined by Bradford measurement.
DHODH enzymatic assay: Enzymatic activity of DHODH was assessed by monitoring the reduction of 2,6‐dichlorophenolinindophenol (DCPIP), which is coupled to the oxidation of dihydroorotate by DHODH. […] The reaction was initiated by adding 50 μL mastermix (2 mM L‐dihydroorotic acid, 0.2 mM decylubiquonone, 0.12 mM 2,6 dichlorphenolindophenol (DCPIP) in assay buffer). DCPIP reduction was monitored at λ=600 nm using Tecan Spark plate reader for 20 min.

U2OS cells [1] = test system: U2OS cells; design: method as in earlier work; settings: ref 9b; cited from earlier work
U2OS cells [2] = assay: Cell Painting assay (CPA), morphological fingerprints; type: cell-based, human; settings: for viability at 10 µM: Homo sapiens, U2OS, read-out: Cell count [%]; for BioSim [%] (biosimilarity) to IPP/CNRS-A017: reference fingerprint IPP/CNRS-A017 5 μM; for BioSim [%] (biosimilarity) to IPP/CNRS-A017 / BioSim [%] (biosimilarity) to brequinar: compound Conc 10 μM; for BioSim [%] (biosimilarity) to brequinar: reference fingerprint brequinar 10 μM
Protocol: Therefore, the definition of bioactivity clusters is crucial for proper hypothesis generation for uncharacterized small molecules that are subjected to the CPA and requires thorough inspection of the CPA fingerprints of reference compounds.[[2b], [9], [10]] […] For the CPA, human osteosarcoma U2OS cells were treated with compounds for 20 h prior to detection of cellular components and compartments (DNA, RNA, mitochondria, Golgi, endoplasmic reticulum (ER), actin, plasma membrane) using six different dyes. Morphological features are extracted and differences to the control (cells that were treated with DMSO) are expressed as Z scores. The CPA fingerprints used in this study compile Z scores for 579 features. […] Myxothiazol is an inhibitor of complex III of the mitochondrial electron transport chain.[15] Whereas de novo biosynthesis of pyrimidines takes place in the cytosol, DHODH is the only enzyme of the pyrimidine biosynthesis pathway that is localized at the inner mitochondrial membrane.[16] DHODH catalyzes the oxidation of dihydroorotate (DHO) to orotate by transferring electrons from DHO via the cofactor FMN to ubiquinone to yield ubiquinol. Electrons from ubiquinol are transferred further to complex III (cytochrome b,c1 complex), thereby recycling […] that is required for DHODH activity. In this way, pyrimidine biosynthesis is tightly coupled to the activity of complex III, which ensures that pyrimidine nucleotides and, thus, DNA and RNA are synthesized only if cells are supplied with sufficient amount of ATP via the mitochondrial respiratory chain. Alternatively, cells can replenish their pyrimidine pools via the salvage pathway by uptake of circulating pyrimidines.[5] Whereas proliferating cells rely on de novo pyrimidine biosynthesis to meet the high demand for nucleotides, the salvage pathway is used by resting and fully differentiated cells.[5]
The cell painting assay: The Cell Painting assay[25] was performed as described previously.[[9a], [26]] U2OS medium (5 μL) was added to each well of a 384‐well plate (PerkinElmer CellCarrier‐384 Ultra) prior to addition of 1,600 U2OS cells per well and incubation for 4 h at 37 °C. Standard stock concentration of compounds was 10 mM. […] Compounds were added to the cells using the Echo 520 acoustic dispenser (Labcyte) followed by incubation for 20 h at 37 °C. Subsequently, mitochondria were stained with 0.1 μg/μL Mito Tracker Deep Red for 30 min at 37 °C in the dark. Cells were fixed using 3.7 % formaldehyde (in PBS) for 20 min at 37 °C in the dark. Cells were washed three times using PBS before permeabilization using Triton X‐100 for 15 min 37 °C in the dark. After three additional washing steps, 25 μL of a staining solution were added to each well, which contained 1 % BSA, 5 μL/mL Phalloidin (Alexa594 conjugate, Thermo Fisher Scientific, A12381), 25 μg/mL Concanavalin A (Alexa488 conjugate, Thermo Fisher Scientific, Cat. No. C11252), 5 μg/mL Hoechst 33342 (Sigma, Cat. No. B2261‐25 mg), 1.5 μg/mL WGA‐Alexa594 conjugate (Thermo Fisher Scientific, Cat. No. W11262) and 1.5 μM SYTO 14 solution (Thermo Fisher Scientific, Cat. No. S7576). Plates were incubated for 30 min at 37 °C in the dark and washed three times with PBS. Plates were sealed and centrifuged for 1 min at 500 rpm. The plates were prepared in triplicates with shifted layouts to reduce plate effects and imaged using a Micro XL High‐Content Screening System (Molecular Devices) in 5 channels (DAPI: Ex350‐400/Em410‐480; FITC: Ex470‐500/Em510‐540; Spectrum Gold: Ex520‐545/Em560‐585; TxRed: Ex535‐585/Em600‐650; Cy5: Ex605‐650/Em670‐715) with 9 sites per well and 20× magnification (binning 2).
Generated images were processed with the CellProfiler package[27] (https://cellprofiler.org, version 3.0.0) on a computing cluster of the Max Planck Society to extract 1716 cell features. The data was then further aggregated as medians per well (9 sites→1 well), then over the three replicates.

HCT116 cells = assay: DHODH rescue assay / cell growth (cell confluence, IncuCyte); type: cell-based; settings: for rescue of cell growth by orotate (OA): 1.5 mM OA, 96 h, 2, 6, 7 at 10 μM, 4 at 30 μM; for rescue of cell growth by uridine: 100 μM uridine, 96 h; for influence on cell growth (cell confluence): monitored over 96 h
Protocol: Figure 3 Influence of compounds on cell growth and DHODH activity. (A–C) HCT116 cells were treated with the compounds or DMSO as a control in presence or absence of 100 μM uridine. Cell confluence as a measure of cell growth was monitored over 96 h using IncuCyte ZOOM/S3. (A) Brequinar (BRQ). (B) Myxothiazol (MXT). […] (D–E) In vitro DHODH activity. […] (F) Influence of compound 7 on complex III activity. All data are mean values of three biological replicates (n=3)±SD.
DHODH rescue assay: 2,000 HCT116 or U2OS cells per well were seeded in a clear 96‐well plate and incubated as described above overnight prior to treatment. The next day, the medium was replaced by fresh compound or DMSO containing medium supplemented with control solvent or uridine (100 μM), OA (1.5 mM) or DHO (1.5 mM). Cell growth was monitored every 2 h for a total of 96 h after treatment start using an IncuCyte S3 (Essen BioScience). The cell confluence was quantified as a measure of cell growth using the IncuCyte S3 software (Essen BioScience).

complex III = target: T2, complex III (Bos taurus, UniProt P00157); assay: MitoTox complex II+III OXPHOS activity assay kit; type: biochemical; settings: bovine heart mitochondria; Figure 3F
T2 construct: tissue Abcam ab109905; host or cells: bovine heart mitochondria
Protocol: MitoTox™ complex II+III OXPHOS activity assay kit: The assay was performed using the MitoTox™ Complex II+III OXPHOS Activity Assay Kit (ab109905, Abcam) according to the manufacturer's instructions. Compounds or DMSO as a control was mixed with succinate solution (electron donor) and oxidized cytochrome c (electron acceptor) in the presence of complex IV inhibitor […] (2 mM, 60168, Sigma Aldrich) and complex I inhibitor Rotenone (12 μM, R8875, Sigma Aldrich). To start the electron transfer reaction, bovine heart mitochondria (0.03 mg/mL) were added to the mixture and conversion of oxidized cytochrome c into the reduced form was monitored for 5 min at 550 nm using the Tecan Spark plate reader.

[3] = complex III inhibitors, Figure S8, concentration not given
[4] = concentration not given, similar if biosimilarity >75 %

T1 sequence (Q02127 31-395): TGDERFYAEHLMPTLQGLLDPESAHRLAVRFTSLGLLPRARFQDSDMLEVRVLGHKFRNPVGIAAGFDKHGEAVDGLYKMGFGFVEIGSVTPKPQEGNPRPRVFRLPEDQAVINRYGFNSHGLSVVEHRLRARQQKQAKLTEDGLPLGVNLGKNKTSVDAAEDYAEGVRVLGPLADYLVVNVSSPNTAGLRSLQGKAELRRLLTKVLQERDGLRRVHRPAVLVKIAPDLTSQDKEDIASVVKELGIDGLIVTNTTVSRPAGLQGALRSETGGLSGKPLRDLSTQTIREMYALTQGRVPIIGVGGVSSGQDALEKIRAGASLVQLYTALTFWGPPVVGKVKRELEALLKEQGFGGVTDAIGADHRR

Row | inhibition at 10 µM (Human DHODH; 10 μM compound) [%] | Structure (SMILES) | CPA fingerprint similarity to the iron chelator deferoxamine (U2OS cells [1]) [%] | cells in S phase (analysis of CPA fingerprints) (U2OS cells [1]) | viability at 10 µM (U2OS cells [2]; Conc 10 μM, 20 h) [%] | BioSim [%] (biosimilarity) to IPP/CNRS-A017 (U2OS cells [2]) | BioSim [%] (biosimilarity) to brequinar (U2OS cells [2]) | influence on in vitro DHODH activity, in words (Human DHODH; 10 μM compound) | rescue of cell growth by orotate (OA) (HCT116 cells) | influence on in vitro DHODH activity, in words (Human DHODH; [3]) | rescue of cell growth by uridine (HCT116 cells) | influence on cell growth (cell confluence) (HCT116 cells) | biosimilarity (BioSim) to brequinar (U2OS cells [2]; [4]) | also measured
1 | > 50 | O=C(Nc1cccnc1)N1Cc2cccc(c2)CN(S(=O)(=O)C(F)(F)F)CC/C=C/C[C@@H]1CO [Compound 5] | 80 | accumulation of cells in S phase; also recorded: increase in the percentage of cells in S phase | 82 | 87 | 84 | – | – | – | – | – | – | IC50 (Human DHODH; dose-response, n=3 ± SD, read-out: IC50 for inhibition of DHODH): 6.2 ± 3 µM
2 | 27 to 44 | Brc1ccc2[nH]c3c(c2c1)CCOC31CCCCC1 [Compound 6] | 81 | accumulation of cells in S phase; also recorded: increase in the percentage of cells in S phase | 88 | 87 | 84 | only moderately inhibited | relieved | – | – | – | – | –
3 | – | CC(=O)Oc1c(C[C@]23CCOC4(CCCCC4)C2=Nc2ccc(Br)cc23)occc1=O [Compound 7] | – | – | 93 | – | – | inactive; also recorded: did not have any influence | relieved | – | – | – | – | influence on complex III activity (complex III): did not impair
4 | – | CO/C(=C/C(N)=O)[C@H](C)[C@H](/C=C/c1csc(-c2csc([C@@H](C)/C=C/C=C/C(C)C)n2)n1)OC [Myxothiazol, myxothiazol] | – | – | – | – | – | – | – | do not inhibit | only partly restored normal cell growth | suppressed the growth | biosimilar | influence on cell growth (cell confluence) (HCT116 cells; listed as myxothiazol): growth arrest; Cell count [%] (U2OS cells [2]; Conc 10 μM, 20 h): 73%; Ind [%] (induction) (U2OS cells [2]; Conc 10 μM, 20 h, percentage of significantly altered features): 46%
5 | – | NC(=O)c1[nH]nc([C@@H]2O[C@H](CO)[C@@H](O)[C@H]2O)c1O [Pyrazofurin, pyrazofurin] | – | – | 97 | – | – | – | – | – | fully rescued | suppressed the growth | high biosimilarity | biosimilarity (BioSim) to IPP/CNRS-A017 (U2OS cells [2]; [4]): high biosimilarity
6 | – | CCCCCC[C@H]1C(=O)O[C@H](C)[C@H](NC(=O)c2cccc(NC=O)c2O)C(=O)O[C@@H](C)[C@@H]1OC(=O)CC(C)C [antimycin A] | – | – | – | – | – | – | – | do not inhibit | – | growth arrest | biosimilar | –
